Reference: patent US11129801B2 (SigmaThera SAS, priority 2016, dated 2021)
Several values for one entry are separate records, joined by “and”; a condition that tells them apart may be missing. Equal entries are not always repeated.

Key:
[1] = test system: hippocampal lipid peroxidation; assay: Hippocampal lipid peroxidation (LPO) measurement, Aβ25-35 mouse model; assay type: in vivo; settings: for hippocampal LPO levels: 1 mg/kg
Experimental: For each of Experiments 1-4, on day 7, all animals were tested for the spontaneous alternation performance in the Y-maze test, an index of spatial working memory. On day 8 and 9, the contextual long-term memory of the animals was assessed using the step-through type passive avoidance procedure. On day 9, immediately after the retention session, animals were sacrificed by decapitation and the hippocampus and cortex dissected out. Lipid peroxidation was analyzed in the hippocampus, whereas neuroinflammation, apoptosis, amyloid burden and hyperphosphorylation of tau protein were analyzed in cortex.
Sacrifice: At the end of the passive avoidance retention session, on day 9, the animals were sacrificed by decapitation. The hippocampi and frontal cortex were dissected out and kept at −80° C. until the measurement of lipid peroxidation and other markers.
Lipid peroxidation measurement: At day 24, 6 hippocampi from each group were used. After thawing, homogenates were homogenized in cold methanol ( 1/10 w/v), centrifuged at 1,000 g during 5 min and the supernatant placed in Eppendorf tube. The reaction volume of each homogenate was added to FeSO4 1 mM, H2SO4 0.25 M, xylenol orange 1 mM and incubated for 30 min at room temperature. After reading the absorbance at 580 nm (A5801), 10 μl of cumene hydroperoxyde (CHP) 1 mM was added to the sample and incubated for 30 min at room temperature, to determine the maximal oxidation level. The absorbance was measured at 580 nm (A5802). The level of lipid peroxidation was determined as CHP equivalents according to: CHPE=A5801/A5802×[CHP (nmol)] and expressed as CHP equivalents per wet weight of tissue and as percentage of control group data (Veh-treated Sc.Aβ-administered mice).

[2] = test system: rat motor neurons (Islet 1/2 positive neurons); assay: Survival of primary motor neurons injured by glutamate; assay type: cell-based; settings: glutamate 40 μM, 20 min
Experimental: Rat motor neurons were cultured as described (Camu et al. (1994) Journal of the neurological sciences 124 Suppl: 73-74). Briefly, pregnant female rats of 14 days gestation were killed by cervical dislocation (Rats Wistar; Janvier Lab) and the foetuses were removed from the uterus. The spinal cord were removed and placed in ice-cold PBS. Tissue segments were spun down, incubated in 0.025% (w/v) of trypsin-EDTA (Panbiotech, Ref: P10-023100) for 10 min at 37° C. Fragments were transferred in 1 mL of complete Leibovitz medium containing BSA (0.4%, Dustcher, Ref: P06-1391100) and DNasel grade II (0.1 mg/ml, Panbiotech, ref: P60-37780100). Cells were then dissociated by several rounds of trituration, centrifuged for 5 min at 470 g on a 4% BSA cushion and re-suspended in 2 mL of supplemented L15 medium. Motor neurons were counted in a Neubauer cytometer using the trypan blue exclusion test. Cells were cultured at a density of 1.5×10^4 cells/well of a 96 wells plate on astrocyte monolayer in Neurobasal (Invitrogen, ref: 21103) containing 1% of B27 (Invitrogen, ref: 17504), 2 mM L-Glutamine (Panbiotech, ref: P04-80100), 1% of PS solution, […] 2-mercaptoethanol (Invitrogen, ref: 31350-010), 2% Horse serum (Invitrogen, Ref: 16050-122), 1 ng/ml of Brain-derived neurotrophic factor (BDNF, PanBiotech, Ref: CB-1115002) and 1 ng/ml of Glial derived neurotrophic factor (GDNF, Dustcher, Ref: CB-1116001) at 37° C. in a humidified air (95%)/CO2 (5%) atmosphere.
Briefly, after 10 days of culture, medium was removed and 100 μL of fresh medium (supplemented Neurobasal without neurotrophic factor) without or with test compound was added 1 h before glutamate intoxication. Then, Glutamate at 40 μM in absence or presence of test compound will be added in the culture medium and incubated 20 min. The cells were rinsed with incubation solution (3 wash-outs) and let in the neurobasal medium containing compounds or control medium for 24 h.
[…]_Control medium stimulated with vehicle medium […]
The data were expressed as mean±s.e.m (of 6 data per condition, 1 culture). […]

[3] = test system: gerbil model of global cerebral ischemia; settings: cited from earlier work

**Q.** What does the source list for `CCC(C/C=C/c1ccccc1)(c1ccccc1)N(C)CC1CC1` (single isomer, unassigned; (+)) [igmesine, (+)-(E)-N-(cyclopropylmethyl)-N-methyl-3,6-diphenylhex-5-en-3-amine]?
**A.** hippocampal LPO levels ([1]; Experiment 1, pre-treatment): fully normalized; hippocampal LPO levels ([1]; Experiment 2, post-treatment): fully normalized; synergy on hippocampal LPO with donepezil ([1]; Experiment 3, igmesine 0.1 mg/kg + donepezil […]): did synergize; synergy on hippocampal LPO with memantine ([1]; Experiment 3, igmesine 0.1 mg/kg + memantine): synergy was not present; protective effect on motor neuron survival ([2]; 0.1 μM, 0.3 μM, 1 μM, 3 μM and 10 μM): significant protective effect; Islet 1/2 positive neurons ([2]; 10 μM): 126 % of the control; effective doses, neuroprotective effects [3]: 50 mg/kg and 75 mg/kg and 100 mg/kg

B1: BDNF: Brain-derived neurotrophic factor, used as a reference compound (protein, UniProt P23560 19-247, looked up)
Neurotrophic factor BDNF …: APMKEANIRGQGGLAYPGVRTHGTLESVNGPKAGSRGLTSLADTFEHVIEELLDEDQKVRPNEENNKDADLYTSRVMLSSQVPLEPPLLFLLEEYKNYLDAANMSMRVRRHSDPARRGELSVCDSISEWVTAADKKTAVDMSGGTVTVLEKVPVSKGQLKQYFYETKCNPMGYTKEGCRGIDKRHWNSQCRTTQSYVRALTMDSKKRIGWRFIRIDTSCVCTLTIKRGR
**Q.** With B1 as the molecule, how does the “Islet 1/2 positive neurons” value ([2]; 50 ng/mL) read?
**A.** 96.43 % of the control
